Reference: the supplement of paper PMC8967900

What was measured:
Assay in all cases: selective drug sensitivity score (sDSS, relative to normal bone marrow) (sDSS (score)); higher = more potent and effective on the cell line relative to normal bone marrow cells
Settings in all cases: 72 h
697 = test system: 697
COG-LL-317 = test system: COG-LL-317
COG-LL-332h = test system: COG-LL-332h
COG-LL-394h = test system: COG-LL-394h
COG-LL-402h = test system: COG-LL-402h
DND-41 = test system: DND-41
HAL-01 = test system: HAL-01
HPB-ALL = test system: HPB-ALL
JURKAT = test system: JURKAT
KARPAS-45 = test system: KARPAS-45
KASUMI-10 = test system: KASUMI-10
KASUMI-9 = test system: KASUMI-9
LC4-1 = test system: LC4-1
MHH-CALL-2 = test system: MHH-CALL-2
MHH-CALL-4 = test system: MHH-CALL-4
NALL-1 = test system: NALL-1
RPMI-8402 = test system: RPMI-8402
SUP-B15 = test system: SUP-B15
TANOUE = test system: TANOUE
TMD5 = test system: TMD5
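Also: ALL cell lines in 384-well plates, five doses spanning 10,000-fold, each plate scaled between vehicle and 100 µmol/L benzalkonium chloride controls, sDSS an adapted area-under-curve metric.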

Row | SMILES | selective drug sensitivity score 697 | selective drug sensitivity score (COG-LL-317) | selective drug sensitivity score (COG-LL-332h) | selective drug sensitivity score (COG-LL-394h) | selective drug sensitivity score (COG-LL-402h) | selective drug sensitivity score (DND-41) | selective drug sensitivity score (HAL-01) | selective drug sensitivity score (HPB-ALL) | selective drug sensitivity score (JURKAT) | selective drug sensitivity score (KARPAS-45) | selective drug sensitivity score (KASUMI-10) | selective drug sensitivity score (KASUMI-9) | selective drug sensitivity score (LC4-1) | selective drug sensitivity score (MHH-CALL-2) | selective drug sensitivity score (MHH-CALL-4) | selective drug sensitivity score (NALL-1) | selective drug sensitivity score (RPMI-8402) | selective drug sensitivity score (SUP-B15) | selective drug sensitivity score (TANOUE) | selective drug sensitivity score (TMD5)
1 | CC[C@@H](C(=O)[C@@H](C)[C@@H](O)[C@H](C)[C@@H]1O[C@@H]([C@@H](CC)C(=O)O)CC[C@@H]1C)[C@H]1O[C@]2(C=C[C@@H](O)[C@]3(CC[C@@](C)([C@H]4CC[C@](O)(CC)[C@H](C)O4)O3)O2)[C@H](C)C[C@@H]1C [Salinomycin] (top concentration 50000 nM) | -0.9 | -2.2 | -2.9 | 3.2 | -4 | 4.7 | 5.6 | -1.2 | 3.1 | 5.4 | 1.8 | -11.4 | -10.9 | 10.8 | 8.5 | 2.2 | 10.1 | -11.1 | -7.5 | 1.1
2 | CNC(=O)CN1CCC(Oc2cc3c(Nc4cccc(Cl)c4F)ncnc3cc2OC)CC1 [Sapitinib] (top concentration 1000 nM) | 0 | 0 | 0 | 0 | 0 | 0 | 0 | 0 | 0 | 0 | 0 | 0 | 0 | 0 | 0 | 0 | 0 | 0 | 0 | 0
3 | O[C@H]1CC[C@H](Nc2ncc3nc(Nc4c(F)cc(F)cc4F)n([C@H]4CCOC4)c3n2)CC1 [Tanzisertib] (top concentration 10000 nM) | 0 | 0 | 0 | 0 | 0 | 0 | 0 | 0 | 0 | 0 | 0 | 0 | 0 | 0.9 | 0.2 | 0 | 0 | 0 | 0 | 0
4 | CO[C@H]1C[C@@H]2CC[C@@H](C)[C@@](O)(O2)C(=O)C(=O)N2CCCC[C@H]2C(=O)O[C@H]([C@H](C)C[C@@H]2CC[C@@H](OC(=O)C(C)(CO)CO)[C@H](OC)C2)CC(=O)[C@H](C)/C=C(\C)[C@@H](O)[C@@H](OC)C(=O)[C@H](C)C[C@H](C)/C=C/C=C/C=C/1C [Temsirolimus] (top concentration 100 nM) | 14.9 | 3.96 | 8.46 | -5.04 | 4.66 | 3.66 | -0.74 | -4.44 | -0.54 | 2.26 | -5.04 | 9.06 | 3.46 | -0.34 | -3.54 | -5.04 | -1.04 | 9.86 | -5.04 | -5.04
5 | COc1cc([C@@H]2c3cc4c(cc3[C@@H](O[C@@H]3O[C@@H]5CO[C@@H](c6cccs6)O[C@H]5[C@H](O)[C@H]3O)[C@H]3COC(=O)[C@H]23)OCO4)cc(OC)c1O [Teniposide] (top concentration 10000 nM) | 0 | 0 | 0 | 0 | 0.1 | 0 | 0 | 0 | 0 | 0 | 0 | 0 | 0 | 0 | 0 | 0 | 0 | 0 | 0 | 0
6 | Oc1nc(-c2ccc(C(F)(F)F)cc2)nc2c1CSCC2 [XAV939] (top concentration 10000 nM) | -0.14 | -0.14 | -0.14 | 0.36 | 0.16 | -0.14 | -0.14 | -0.14 | -0.14 | -0.14 | -0.14 | -0.14 | 0.56 | 0.26 | -0.14 | -0.14 | -0.14 | -0.14 | -0.14 | -0.14
